# Assay: Single fixed dose dosing regimen examples for safety and efficacy (serum T Cmax / Cavg criteria), with food
# Type: in vivo, human
# [1] = Regimen 1, QD 500 mg T13, with food with at least 10 g of fat
# [2] = Regimen 2, QD 700 mg T13, with food with at least 10 g of fat
# [3] = Regimen 3, QD 750 mg T13, with food with at least 10 g of fat
# [4] = Regimen 4, QD 800 mg T13, with food with at least 10 g of fat
# [5] = Regimen 5, QD 900 mg T13, with food with at least 10 g of fat
# [6] = Regimen 6, QD 1000 mg T13, with food with at least 10 g of fat
# [7] = Regimen 7, QD 1100 mg T13, with food with at least 10 g of fat
# [8] = Regimen 8, QD 1150 mg T13, with food with at least 10 g of fat
# [9] = Regimen 9, QD 1250 mg T13, with food with at least 10 g of fat
# [10] = Regimen 10, BID-equal dose (AM/PM) 250/250 mg T13, with food with at least 10 g of fat
# [11] = Regimen 11, BID-equal dose (AM/PM) 350/350 mg T13, with food with at least 10 g of fat
# [12] = Regimen 12, BID-equal dose (AM/PM) 375/375 mg T13, with food with at least 10 g of fat
# [13] = Regimen 13, BID-equal dose (AM/PM) 400/400 mg T13, with food with at least 10 g of fat
# [14] = Regimen 14, BID-equal dose (AM/PM) 450/450 mg T13, with food with at least 10 g of fat
# [15] = Regimen 15, BID-equal dose (AM/PM) 500/500 mg T13, with food with at least 10 g of fat
# [16] = Regimen 16, BID-equal dose (AM/PM) 550/550 mg T13, with food with at least 10 g of fat
# [17] = Regimen 17, BID-equal dose (AM/PM) 575/575 mg T13, with food with at least 10 g of fat
# [18] = Regimen 18, BID-equal dose (AM/PM) 625/625 mg T13, with food with at least 10 g of fat
compound,measurement,setting,value
"CCCCCCCCCCCCC(=O)O[C@H]1CC[C@H]2[C@@H]3CCC4=CC(=O)CC[C@]4(C)[C@H]3CC[C@]12C [T13, testosterone tridecanoate]",Cavg > 300 ng/dL ≥75% patients,[1],No
same,Cavg > 300 ng/dL ≥80% patients,[1],No
same,Cmax > 1500 ng/dL <15% patients,[1],Yes
same,Cmax > 1500 ng/dL <20% patients,[1],Yes
same,Cmax > 1800 ng/dL <5% patients,[1],Yes
same,Cmax > 1800 ng/dL <10% patients,[1],Yes
same,Cmax > 2500 ng/dL <2% patients,[1],Yes
same,Cmax > 2500 ng/dL none of patients,[1],Yes
same,Cavg > 300 ng/dL ≥75% patients,[2],No
same,Cavg > 300 ng/dL ≥80% patients,[2],No
same,Cmax > 1500 ng/dL <15% patients,[2],Yes
same,Cmax > 1500 ng/dL <20% patients,[2],Yes
same,Cmax > 1800 ng/dL <5% patients,[2],Yes
same,Cmax > 1800 ng/dL <10% patients,[2],Yes
same,Cmax > 2500 ng/dL <2% patients,[2],Yes
same,Cmax > 2500 ng/dL none of patients,[2],Yes
same,Cavg > 300 ng/dL ≥75% patients,[3],Yes
same,Cavg > 300 ng/dL ≥80% patients,[3],No
same,Cmax > 1500 ng/dL <15% patients,[3],Yes
same,Cmax > 1500 ng/dL <20% patients,[3],Yes
same,Cavg > 300 ng/dL ≥75% patients,[4],Yes
same,Cavg > 300 ng/dL ≥80% patients,[4],Yes
same,Cavg > 300 ng/dL ≥75% patients,[5],Yes
same,Cavg > 300 ng/dL ≥80% patients,[5],Yes
same,Cmax > 1500 ng/dL <15% patients,[5],Yes
same,Cmax > 1500 ng/dL <20% patients,[5],Yes
same,Cmax > 1800 ng/dL <5% patients,[5],Yes
same,Cmax > 1800 ng/dL <10% patients,[5],Yes
same,Cmax > 2500 ng/dL <2% patients,[5],Yes
same,Cmax > 2500 ng/dL none of patients,[5],Yes
same,Cavg > 300 ng/dL ≥75% patients,[6],Yes
same,Cavg > 300 ng/dL ≥80% patients,[6],Yes
same,Cmax > 1500 ng/dL <15% patients,[6],Yes
same,Cmax > 1500 ng/dL <20% patients,[6],Yes
same,Cmax > 1800 ng/dL <5% patients,[6],Yes
same,Cmax > 1800 ng/dL <10% patients,[6],Yes
same,Cmax > 2500 ng/dL <2% patients,[6],Yes
same,Cmax > 2500 ng/dL none of patients,[6],Yes
same,Cavg > 300 ng/dL ≥75% patients,[7],Yes
same,Cavg > 300 ng/dL ≥80% patients,[7],Yes
same,Cmax > 1500 ng/dL <15% patients,[7],Yes
same,Cmax > 1500 ng/dL <20% patients,[7],Yes
same,Cmax > 1800 ng/dL <5% patients,[7],Yes
same,Cmax > 1800 ng/dL <10% patients,[7],Yes
same,Cmax > 2500 ng/dL <2% patients,[7],Yes
same,Cmax > 2500 ng/dL none of patients,[7],Yes
same,Cavg > 300 ng/dL ≥75% patients,[8],Yes
same,Cavg > 300 ng/dL ≥80% patients,[8],Yes
same,Cmax > 1500 ng/dL <15% patients,[8],No
same,Cmax > 1500 ng/dL <20% patients,[8],Yes
same,Cmax > 1800 ng/dL <5% patients,[8],Yes
same,Cmax > 1800 ng/dL <10% patients,[8],Yes
same,Cmax > 2500 ng/dL <2% patients,[8],Yes
same,Cmax > 2500 ng/dL none of patients,[8],No
same,Cavg > 300 ng/dL ≥75% patients,[9],Yes
same,Cavg > 300 ng/dL ≥80% patients,[9],Yes
same,Cmax > 1500 ng/dL <15% patients,[9],No
same,Cmax > 1500 ng/dL <20% patients,[9],No
same,Cmax > 1800 ng/dL <5% patients,[9],No
same,Cmax > 1800 ng/dL <10% patients,[9],No
same,Cmax > 2500 ng/dL <2% patients,[9],No
same,Cmax > 2500 ng/dL none of patients,[9],No
same,Cavg > 300 ng/dL ≥75% patients,[10],No
same,Cavg > 300 ng/dL ≥80% patients,[10],No
same,Cmax > 1500 ng/dL <15% patients,[10],Yes
same,Cmax > 1500 ng/dL <20% patients,[10],Yes
same,Cmax > 1800 ng/dL <5% patients,[10],Yes
same,Cmax > 1800 ng/dL <10% patients,[10],Yes
same,Cmax > 2500 ng/dL <2% patients,[10],Yes
same,Cmax > 2500 ng/dL none of patients,[10],Yes
same,Cavg > 300 ng/dL ≥75% patients,[11],No
same,Cavg > 300 ng/dL ≥80% patients,[11],No
same,Cmax > 1500 ng/dL <15% patients,[11],Yes
same,Cmax > 1500 ng/dL <20% patients,[11],Yes
same,Cmax > 1800 ng/dL <5% patients,[11],Yes
same,Cmax > 1800 ng/dL <10% patients,[11],Yes
same,Cmax > 2500 ng/dL <2% patients,[11],Yes
same,Cmax > 2500 ng/dL none of patients,[11],Yes
same,Cavg > 300 ng/dL ≥75% patients,[12],Yes
same,Cavg > 300 ng/dL ≥80% patients,[12],No
same,Cmax > 1500 ng/dL <15% patients,[12],Yes
same,Cmax > 1500 ng/dL <20% patients,[12],Yes
same,Cmax > 1800 ng/dL <5% patients,[12],Yes
same,Cmax > 1800 ng/dL <10% patients,[12],Yes
same,Cmax > 2500 ng/dL <2% patients,[12],Yes
same,Cmax > 2500 ng/dL none of patients,[12],Yes
same,Cavg > 300 ng/dL ≥75% patients,[13],Yes
same,Cavg > 300 ng/dL ≥80% patients,[13],Yes
same,Cmax > 1500 ng/dL <15% patients,[13],Yes
same,Cmax > 1500 ng/dL <20% patients,[13],Yes
same,Cmax > 1800 ng/dL <5% patients,[13],Yes
same,Cmax > 1800 ng/dL <10% patients,[13],Yes
same,Cmax > 2500 ng/dL <2% patients,[13],Yes
same,Cmax > 2500 ng/dL none of patients,[13],Yes
same,Cavg > 300 ng/dL ≥75% patients,[14],Yes
same,Cavg > 300 ng/dL ≥80% patients,[14],Yes
same,Cmax > 1500 ng/dL <15% patients,[14],Yes
same,Cmax > 1500 ng/dL <20% patients,[14],Yes
same,Cmax > 1800 ng/dL <5% patients,[14],Yes
same,Cmax > 1800 ng/dL <10% patients,[14],Yes
same,Cmax > 2500 ng/dL <2% patients,[14],Yes
same,Cmax > 2500 ng/dL none of patients,[14],Yes
same,Cavg > 300 ng/dL ≥75% patients,[15],Yes
same,Cavg > 300 ng/dL ≥80% patients,[15],Yes
same,Cmax > 1500 ng/dL <15% patients,[15],Yes
same,Cmax > 1500 ng/dL <20% patients,[15],Yes
same,Cmax > 1800 ng/dL <5% patients,[15],Yes
same,Cmax > 1800 ng/dL <10% patients,[15],Yes
same,Cmax > 2500 ng/dL <2% patients,[15],Yes
same,Cmax > 2500 ng/dL none of patients,[15],Yes
same,Cavg > 300 ng/dL ≥75% patients,[16],Yes
same,Cavg > 300 ng/dL ≥80% patients,[16],Yes
same,Cmax > 1500 ng/dL <15% patients,[16],Yes
same,Cmax > 1500 ng/dL <20% patients,[16],Yes
same,Cmax > 1800 ng/dL <5% patients,[16],Yes
same,Cmax > 1800 ng/dL <10% patients,[16],Yes
same,Cmax > 2500 ng/dL <2% patients,[16],Yes
same,Cmax > 2500 ng/dL none of patients,[16],Yes
same,Cavg > 300 ng/dL ≥75% patients,[17],Yes
same,Cavg > 300 ng/dL ≥80% patients,[17],Yes
same,Cmax > 1500 ng/dL <15% patients,[17],Yes
same,Cmax > 1500 ng/dL <20% patients,[17],Yes
same,Cmax > 1800 ng/dL <5% patients,[17],Yes
same,Cmax > 1800 ng/dL <10% patients,[17],Yes
same,Cmax > 2500 ng/dL <2% patients,[17],Yes
same,Cmax > 2500 ng/dL none of patients,[17],Yes
same,Cavg > 300 ng/dL ≥75% patients,[18],Yes
same,Cavg > 300 ng/dL ≥80% patients,[18],Yes
same,Cmax > 1500 ng/dL <15% patients,[18],Yes
same,Cmax > 1500 ng/dL <20% patients,[18],Yes
same,Cmax > 1800 ng/dL <5% patients,[18],Yes
same,Cmax > 1800 ng/dL <10% patients,[18],Yes
same,Cmax > 2500 ng/dL <2% patients,[18],Yes
same,Cmax > 2500 ng/dL none of patients,[18],Yes
